Data from ChEMBL document CHEMBL1145395, “De novo design of selective antibiotic peptides by incorporation of unnatural amino acids” (J Med Chem, 2007).
In brackets after ≈: the same amount, converted by molar mass. Activity calls are given as the source filed them. No cut-off for these calls is given here. Non-standard residues stand in square brackets, D forms with d. Residues, ends and D or L forms follow the SMILES beside them. ξ: configuration not given here. Phe(4-NO2) = N[C@@H](Cc1ccc([N+](=O)[O-])cc1)C(=O)O; Pro(3ξ,4ξ-(CH2)4) = O=C(O)[C@H]1NCC2CCCCC21; Oic = O=C(O)[C@@H]1C[C@@H]2CCCC[C@@H]2N1; Pro(3,4-benzo) = O=C(O)[C@H]1NCc2ccccc21; Tic = O=C(O)[C@@H]1Cc2ccccc2CN1; βAla = NCCC(=O)O

How the values were obtained:
Type in all cases: functional
Salmonella typhimurium = assay: Antibacterial activity against Salmonella Typhimurium ATCC 13311; details: for Activity: Salmonella enterica subsp. enterica serovar Typhimurium; for MIC: Salmonella enterica
Staphylococcus aureus = assay: Antibacterial activity against methicillin/gentamicin/tetracycline resistant Staphylococcus aureus ATCC 33592
Mycobacterium = assay: Antibacterial activity against Mycobacterium ranae ATCC 110

For `CSCC[C@H](NC(=O)[C@H](CC(C)C)NC(=O)[C@H](CCC(=O)O)NC(=O)[C@@H]1c2ccccc2CN1C(=O)[C@@H]1Cc2ccccc2CN1C(=O)[C@H](Cc1ccccc1)NC(=O)CCNC(=O)[C@@H]1c2ccccc2CN1C(=O)[C@@H]1Cc2ccccc2CN1C(=O)[C@H](CCCCN)NC(=O)CCNC(=O)[C@@H]1c2ccccc2CN1C(=O)[C@@H]1Cc2ccccc2CN1C(=O)[C@H](Cc1ccccc1)NC(=O)CCNC(=O)[C@@H]1c2ccccc2CN1C(=O)[C@@H]1Cc2ccccc2CN1C(=O)[C@H](CCCCN)NC(=O)CCNC(=O)[C@@H]1c2ccccc2CN1C(=O)[C@@H]1Cc2ccccc2CN1C(=O)[C@H](CC(C)C)NC(=O)CNC(=O)[C@H](CCCCN)NC(=O)CN)C(=O)N[C@@H](CC(N)=O)C(=O)N[C@@H](CO)C(N)=O` (H-GKGL[Tic][Pro(3,4-benzo)][βAla]K[Tic][Pro(3,4-benzo)][βAla]F[Tic][Pro(3,4-benzo)][βAla]K[Tic][Pro(3,4-benzo)][βAla]F[Tic][Pro(3,4-benzo)]ELMNS-NH2), the Activity (Salmonella typhimurium) was “inactive” and the Activity (Staphylococcus aureus) was “inactive”.
For `CSCC[C@H](NC(=O)[C@H](CC(C)C)NC(=O)[C@H](CCC(=O)O)NC(=O)[C@@H]1Cc2ccccc2CN1C(=O)[C@H](CCCCN)NC(=O)CNC(=O)[C@H](CC(C)C)NC(=O)CNC(=O)[C@@H]1Cc2ccccc2CN1C(=O)[C@H](CCCCN)NC(=O)CNC(=O)[C@H](CC(C)C)NC(=O)CNC(=O)[C@@H]1Cc2ccccc2CN1C(=O)[C@H](CCSC)NC(=O)[C@H](CCCCN)NC(=O)CN)C(=O)NCC(=O)N[C@@H](CCCNC(=N)N)C(N)=O` (H-GKM[Tic]GLGK[Tic]GLGK[Tic]ELMGR-NH2), the Activity (Salmonella typhimurium) was “inactive” and the Activity (Staphylococcus aureus) was “inactive”.
In the case of `CC(=O)NCC(=O)N[C@H](Cc1ccccc1)C(=O)N1Cc2ccccc2C[C@H]1C(=O)N1[C@H](C(=O)NCC(=O)N[C@@H](CCCCN)C(=O)N2Cc3ccccc3C[C@H]2C(=O)N2[C@H](C(=O)NCC(=O)N[C@H](Cc3ccccc3)C(=O)N3Cc4ccccc4C[C@H]3C(=O)N3[C@H](C(=O)NCC(=O)N[C@@H](CCCCN)C(=O)N4Cc5ccccc5C[C@H]4C(=O)N[C@@H](CCCCN)C(=O)N[C@@H](CCCCN)C(=O)N[C@@H](CCCCN)C(=O)N[C@@H](CCCCN)C(N)=O)C[C@@H]4CCCC[C@@H]43)C[C@@H]3CCCC[C@@H]32)C[C@@H]2CCCC[C@@H]21` (Ac-G[dF][Tic][Oic]GK[Tic][Oic]G[dF][Tic][Oic]GK[Tic]KKKK-NH2), the MIC (Salmonella typhimurium) is reported as 10 µM (≈ 24.4 µg/mL), the MIC (Staphylococcus aureus) is reported as 3 µM (≈ 7.32 µg/mL) and the MIC (Mycobacterium) is reported as 10 µM (≈ 24.4 µg/mL).
`CC(C)C[C@H](NC(=O)CNC(=O)[C@H](CCCCN)NC(=O)CN)C(=O)N1Cc2ccccc2C[C@H]1C(=O)N1CC2CCCCC2[C@H]1C(=O)NCC(=O)N[C@@H](CCCNC(=N)N)C(=O)N1Cc2ccccc2C[C@H]1C(=O)N1CC2CCCCC2[C@H]1C(=O)NCC(=O)N[C@@H](Cc1ccccc1)C(=O)N1Cc2ccccc2C[C@H]1C(=O)N1CC2CCCCC2[C@H]1C(=O)NCC(=O)N[C@@H](CCCNC(=N)N)C(=O)N1Cc2ccccc2C[C@H]1C(=O)N1CC2CCCCC2[C@H]1C(=O)NCC(=O)N[C@@H](Cc1ccccc1)C(=O)N1Cc2ccccc2C[C@H]1C(=O)N1CC2CCCCC2[C@H]1C(=O)NCC(=O)N[C@@H](CCCNC(=N)N)C(=O)N1Cc2ccccc2C[C@H]1C(=O)N1CC2CCCCC2[C@H]1C(=O)NCC(=O)N[C@@H](CCCCN)C(=O)N[C@@H](CCCNC(=N)N)C(N)=O` (stereo partly drawn) (H-GKGL[Tic][Pro(3ξ,4ξ-(CH2)4)]GR[Tic][Pro(3ξ,4ξ-(CH2)4)]GF[Tic][Pro(3ξ,4ξ-(CH2)4)]GR[Tic][Pro(3ξ,4ξ-(CH2)4)]GF[Tic][Pro(3ξ,4ξ-(CH2)4)]GR[Tic][Pro(3ξ,4ξ-(CH2)4)]GKR-NH2) was tested, and the Activity (Mycobacterium) was “inactive”.
`CSCC[C@H](NC(=O)[C@H](CC(C)C)NC(=O)[C@H](CCC(=O)O)NC(=O)[C@@H]1CCCN1C(=O)[C@@H]1Cc2ccccc2CN1C(=O)[C@H](CCCCN)NC(=O)CNC(=O)[C@H](CC(C)C)NC(=O)CNC(=O)[C@@H]1C2CCCCC2CN1C(=O)[C@@H]1Cc2ccccc2CN1C(=O)[C@H](CCC(=O)O)NC(=O)[C@H](CCCCN)NC(=O)CNC(=O)[C@H](CC(C)C)NC(=O)CNC(=O)[C@@H]1C2CCCCC2CN1C(=O)[C@@H]1Cc2ccccc2CN1C(=O)[C@H](CCCCN)NC(=O)CNC(C)=O)C(=O)NCC(=O)N[C@@H](CCC(=O)O)C(=O)N[C@@H](CCCNC(=N)N)C(N)=O` (stereo partly drawn) (Ac-GK[Tic][Pro(3ξ,4ξ-(CH2)4)]GLGKE[Tic][Pro(3ξ,4ξ-(CH2)4)]GLGK[Tic]PELMGER-NH2) was tested, and the Activity (Salmonella typhimurium) was “inactive” and the Activity (Staphylococcus aureus) was “inactive”.
In the case of `CSCC[C@H](NC(=O)[C@H](CC(C)C)NC(=O)[C@H](CCC(=O)O)NC(=O)[C@@H]1CCCN1C(=O)[C@H](Cc1ccccc1)NC(=O)[C@H](CCCCN)NC(=O)CNC(=O)[C@H](CC(C)C)NC(=O)CNC(=O)[C@H](Cc1ccccc1)NC(=O)[C@H](CCC(=O)O)NC(=O)[C@H](CCCCN)NC(=O)CNC(=O)[C@H](CC(C)C)NC(=O)CNC(=O)[C@@H]1CCCN1C(=O)[C@H](Cc1ccccc1)NC(=O)[C@H](CCSC)NC(=O)[C@H](CCCCN)NC(=O)CNC(C)=O)C(=O)NCC(=O)N[C@@H](CCC(=O)O)C(=O)N[C@@H](CCCNC(=N)N)C(N)=O` (Ac-GKMFPGLGKEFGLGKFPELMGER-NH2), the Activity (Salmonella typhimurium) is reported as “inactive” and the Activity (Staphylococcus aureus) is reported as “inactive”.
`CC(=O)NCC(=O)N[C@@H](Cc1ccc([N+](=O)[O-])cc1)C(=O)N1Cc2ccccc2C[C@H]1C(=O)N1CC2CCCCC2[C@H]1C(=O)NCC(=O)N[C@@H](CCCCN)C(=O)N1Cc2ccccc2C[C@H]1C(=O)N1CC2CCCCC2[C@H]1C(=O)NCC(=O)N[C@@H](Cc1ccc([N+](=O)[O-])cc1)C(=O)N1Cc2ccccc2C[C@H]1C(=O)N1CC2CCCCC2[C@H]1C(=O)NCC(=O)N[C@@H](CCCCN)C(=O)N1Cc2ccccc2C[C@H]1C(=O)N[C@@H](CCCCN)C(=O)N[C@@H](CCCCN)C(=O)N[C@@H](CCCCN)C(=O)N[C@@H](CCCCN)C(N)=O` (stereo partly drawn) (Ac-G[Phe(4-NO2)][Tic][Pro(3ξ,4ξ-(CH2)4)]GK[Tic][Pro(3ξ,4ξ-(CH2)4)]G[Phe(4-NO2)][Tic][Pro(3ξ,4ξ-(CH2)4)]GK[Tic]KKKK-NH2) showed an MIC (Salmonella typhimurium) of 30 µM (≈ 75.9 µg/mL), an MIC (Staphylococcus aureus) of 10 µM (≈ 25.3 µg/mL) and an MIC (Mycobacterium) of 10 µM (≈ 25.3 µg/mL).
`CC(C)C[C@H](NC(=O)CNC(=O)[C@H](CCCCN)NC(=O)CN)C(=O)N1Cc2ccccc2C[C@H]1C(=O)N1CC2CCCCC2[C@H]1C(=O)NCC(=O)N[C@@H](CCCCN)C(=O)N1Cc2ccccc2C[C@H]1C(=O)N1CC2CCCCC2[C@H]1C(=O)NCC(=O)N[C@@H](CC(C)C)C(=O)N1Cc2ccccc2C[C@H]1C(=O)N1CC2CCCCC2[C@H]1C(=O)NCC(=O)N[C@@H](CCCCN)C(=O)N1Cc2ccccc2C[C@H]1C(=O)N1CC2CCCCC2[C@H]1C(=O)NCC(=O)N[C@@H](CC(C)C)C(=O)N1Cc2ccccc2C[C@H]1C(=O)N1CC2CCCCC2[C@H]1C(=O)NCC(=O)N[C@@H](CCCCN)C(=O)N1Cc2ccccc2C[C@H]1C(=O)N1CC2CCCCC2[C@H]1C(=O)NCC(=O)N[C@@H](CCCCN)C(=O)N[C@@H](CCCNC(=N)N)C(N)=O` (stereo partly drawn) (H-GKGL[Tic][Pro(3ξ,4ξ-(CH2)4)]GK[Tic][Pro(3ξ,4ξ-(CH2)4)]GL[Tic][Pro(3ξ,4ξ-(CH2)4)]GK[Tic][Pro(3ξ,4ξ-(CH2)4)]GL[Tic][Pro(3ξ,4ξ-(CH2)4)]GK[Tic][Pro(3ξ,4ξ-(CH2)4)]GKR-NH2) was tested, and the MIC (Salmonella typhimurium) was 100 µM (≈ 347 µg/mL) and the MIC (Staphylococcus aureus) was 10 µM (≈ 34.7 µg/mL).
Molecule `CC(=O)NCC(=O)N[C@@H](Cc1ccccc1)C(=O)N1Cc2ccccc2C[C@H]1C(=O)N1[C@H](C(=O)NCC(=O)N[C@H](CCCCN)C(=O)N2Cc3ccccc3C[C@H]2C(=O)N2[C@H](C(=O)NCC(=O)N[C@@H](Cc3ccccc3)C(=O)N3Cc4ccccc4C[C@H]3C(=O)N3[C@H](C(=O)NCC(=O)N[C@H](CCCCN)C(=O)N4Cc5ccccc5C[C@H]4C(=O)N[C@@H](CCCCN)C(=O)N[C@@H](CCCCN)C(=O)N[C@@H](CCCCN)C(=O)N[C@@H](CCCCN)C(N)=O)C[C@@H]4CCCC[C@@H]43)C[C@@H]3CCCC[C@@H]32)C[C@@H]2CCCC[C@@H]21` (Ac-GF[Tic][Oic]G[dK][Tic][Oic]GF[Tic][Oic]G[dK][Tic]KKKK-NH2) has an MIC (Salmonella typhimurium) of 10 µM (≈ 24.4 µg/mL), an MIC (Staphylococcus aureus) of 10 µM (≈ 24.4 µg/mL) and an MIC (Mycobacterium) of 10 µM (≈ 24.4 µg/mL).
For `CC(C)C[C@@H](NC(=O)CNC(=O)[C@H](CCCCN)NC(=O)CN)C(=O)N1Cc2ccccc2C[C@H]1C(=O)N1CC2CCCCC2[C@H]1C(=O)N[C@@H](Cc1ccccc1)C(=O)N[C@@H](CCCN)C(=O)N1Cc2ccccc2C[C@H]1C(=O)N1CC2CCCCC2[C@H]1C(=O)N[C@H](CCCCN)C(=O)N[C@@H](Cc1ccccc1)C(=O)N1Cc2ccccc2C[C@H]1C(=O)N1CC2CCCCC2[C@H]1C(=O)N[C@@H](Cc1ccccc1)C(=O)N[C@@H](CCCCN)C(=O)N1Cc2ccccc2C[C@H]1C(=O)N1CC2CCCCC2[C@H]1C(=O)N[C@@H](CCCCN)C(=O)N[C@@H](Cc1ccccc1)C(=O)N1Cc2ccccc2C[C@H]1C(=O)N1CC2CCCCC2[C@H]1C(=O)N[C@H](Cc1ccccc1)C(=O)N[C@@H](CCCCN)C(=O)N1Cc2ccccc2C[C@H]1C(=O)N1CC2CCCCC2[C@H]1C(=O)N[C@@H](Cc1ccccc1)C(=O)N[C@@H](CCCCN)C(=O)N[C@@H](CCCNC(=N)N)C(N)=O` (stereo partly drawn), the Activity (Mycobacterium) was “inactive”.
For `CSCC[C@H](NC(=O)[C@H](CC(C)C)NC(=O)[C@H](CCC(=O)O)NC(=O)[C@@H]1CCCN1C(=O)[C@H](Cc1ccccc1)NC(=O)[C@H](CCCCN)NC(=O)CNC(=O)[C@H](CC(C)C)NC(=O)CNC(=O)[C@@H]1CCCN1C(=O)[C@H](Cc1ccccc1)NC(=O)[C@H](CCCCN)NC(=O)CNC(=O)[C@H](CC(C)C)NC(=O)CNC(=O)[C@@H]1CCCN1C(=O)[C@H](Cc1ccccc1)NC(=O)[C@H](CCSC)NC(=O)[C@H](CCCCN)NC(=O)CN)C(=O)NCC(=O)N[C@@H](CCCNC(=N)N)C(N)=O` (H-GKMFPGLGKFPGLGKFPELMGR-NH2), the Activity (Salmonella typhimurium) was “inactive” and the Activity (Staphylococcus aureus) was “inactive”.
